Earlier results as cited in patent US5185366A, “Method for treatment and prevention of diseases caused by enveloped viruses, including herpes simplex virus types 1 and 2 diseases, using 3,4-dihydroxy-2H-benzopyran-2H-one” (Ohio State University Research Foundation, priority 1990, dated 1993).

Columns and labels:
[1] = tested on: hepatitis B virus (HBV); settings: 5-250 μg/mL, Kessler et al.; cited from earlier work
[2] = tested on: HBV DNA polymerase; settings: 5-250 μg/mL, Kessler et al.; cited from earlier work

C[C@@H]1[C@H](O)[C@@H](C)/C=C/C=C/C=C/C=C/C=C/C=C/C=C/[C@H](O[C@@H]2O[C@H](C)[C@@H](O)[C@H](N)[C@@H]2O)C[C@@H]2O[C@](O)(C[C@@H](O)C[C@@H](O)[C@H](O)CC[C@@H](O)C[C@@H](O)CC(=O)O[C@H]1C)C[C@H](O)[C@H]2C(=O)O [amphotericin B]
effect on HBV particle / envelope [1]: changes in electron microscopic appearance of the virus, increased penetration of negative stain into the lipid envelope, disruption of the particle
increase in density of HBV [1]: 1.165 to 1.225 g/mL
HBV DNA polymerase activity [2]: concentration dependent increase in HBV DNA polymerase activity
